In PMC8617627, “Novel DYRK1A Inhibitor Rescues Learning and Memory Deficits in a Mouse Model of Down Syndrome” (Pharmaceuticals, 2021):
Where two headings read alike, the source gives them in different places.

Columns and labels:
Experiment in all cases: Kinase profile (33P ATP filter binding)
Type in all cases: biochemical
MKK2 = MKK2 (Homo sapiens, UniProt P36507); conditions: read-out: Remaining protein kinase activity
Method: (§1) The compounds were diluted to the appropriate concentration. The compounds were added to a “mother plate” consisting of samples, controls, and blanks. These serve as the source for “daughter plates” which are stored at −20 °C until assay initiation. Protein Kinases: Enzyme/Substrate mixture was added to the compound, and the compounds were incubated for five minutes at room temperature (RT). ^33P ATP was added to the compounds to initiate the assay. Orthophosphoric acid was added to the compounds to halt the assay. Assay components were harvested onto P81 filter plates, filter plates were air-dried, scintillation fluid was added to plates, and counts were read on a Topcount NXT. A mean percentage activity was calculated.

PLK1 = PLK1 (Homo sapiens, UniProt P53350); conditions: read-out: Remaining protein kinase activity
Chain of PLK1 (P53350 whole entry): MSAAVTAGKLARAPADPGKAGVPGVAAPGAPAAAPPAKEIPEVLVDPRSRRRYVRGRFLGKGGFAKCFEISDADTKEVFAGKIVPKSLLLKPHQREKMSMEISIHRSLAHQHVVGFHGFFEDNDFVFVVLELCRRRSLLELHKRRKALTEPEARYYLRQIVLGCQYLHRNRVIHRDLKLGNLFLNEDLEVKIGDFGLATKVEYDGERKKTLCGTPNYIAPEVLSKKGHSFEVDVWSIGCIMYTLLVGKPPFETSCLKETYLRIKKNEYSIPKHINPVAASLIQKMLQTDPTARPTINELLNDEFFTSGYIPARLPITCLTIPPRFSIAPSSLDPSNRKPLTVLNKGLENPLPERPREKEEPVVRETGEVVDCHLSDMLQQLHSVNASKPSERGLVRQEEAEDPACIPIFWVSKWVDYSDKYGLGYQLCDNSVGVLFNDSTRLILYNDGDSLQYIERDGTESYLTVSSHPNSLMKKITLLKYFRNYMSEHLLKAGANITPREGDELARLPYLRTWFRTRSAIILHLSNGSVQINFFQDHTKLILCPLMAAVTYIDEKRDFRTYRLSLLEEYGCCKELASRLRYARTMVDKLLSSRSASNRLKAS
Method: as §1

PHK = test system: PHK
Method: as §1

ERK1 = ERK1 (Homo sapiens, UniProt P27361); conditions: read-out: Remaining protein kinase activity
Chain of ERK1 (P27361 whole entry, species assumed): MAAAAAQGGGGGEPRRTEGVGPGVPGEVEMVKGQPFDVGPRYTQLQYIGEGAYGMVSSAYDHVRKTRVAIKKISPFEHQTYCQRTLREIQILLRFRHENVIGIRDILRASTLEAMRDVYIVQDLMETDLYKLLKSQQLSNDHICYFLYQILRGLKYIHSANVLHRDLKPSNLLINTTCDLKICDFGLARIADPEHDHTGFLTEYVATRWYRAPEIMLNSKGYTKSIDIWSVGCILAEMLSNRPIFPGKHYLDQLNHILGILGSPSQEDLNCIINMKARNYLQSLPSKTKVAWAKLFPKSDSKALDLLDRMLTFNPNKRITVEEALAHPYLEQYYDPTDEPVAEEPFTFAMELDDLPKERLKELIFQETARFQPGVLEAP
Method: as §1

PKCa = PKCa (Homo sapiens, UniProt P17252); conditions: read-out: Remaining protein kinase activity
Method: as §1

MST4 = MST4 (Homo sapiens, UniProt Q9P289); conditions: read-out: Remaining protein kinase activity
Chain of MST4 (Q9P289 whole entry): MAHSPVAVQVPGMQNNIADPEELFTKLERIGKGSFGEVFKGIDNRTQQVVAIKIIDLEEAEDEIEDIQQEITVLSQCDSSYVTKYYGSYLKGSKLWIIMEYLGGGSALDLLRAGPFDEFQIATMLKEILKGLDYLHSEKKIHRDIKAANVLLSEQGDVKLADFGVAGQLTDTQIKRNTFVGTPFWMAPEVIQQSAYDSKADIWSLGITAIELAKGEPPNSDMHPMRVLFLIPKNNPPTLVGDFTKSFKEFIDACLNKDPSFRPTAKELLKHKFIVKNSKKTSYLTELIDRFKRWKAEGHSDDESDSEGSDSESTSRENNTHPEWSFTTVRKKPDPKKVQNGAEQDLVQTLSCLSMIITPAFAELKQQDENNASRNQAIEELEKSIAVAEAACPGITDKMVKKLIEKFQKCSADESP
Method: as §1

WNK1 = WNK1 (Homo sapiens, UniProt Q9H4A3)
Method: as §1

Lck = Lck (Homo sapiens, UniProt P06239); conditions: read-out: Remaining protein kinase activity
Chain of Lck (P06239 whole entry): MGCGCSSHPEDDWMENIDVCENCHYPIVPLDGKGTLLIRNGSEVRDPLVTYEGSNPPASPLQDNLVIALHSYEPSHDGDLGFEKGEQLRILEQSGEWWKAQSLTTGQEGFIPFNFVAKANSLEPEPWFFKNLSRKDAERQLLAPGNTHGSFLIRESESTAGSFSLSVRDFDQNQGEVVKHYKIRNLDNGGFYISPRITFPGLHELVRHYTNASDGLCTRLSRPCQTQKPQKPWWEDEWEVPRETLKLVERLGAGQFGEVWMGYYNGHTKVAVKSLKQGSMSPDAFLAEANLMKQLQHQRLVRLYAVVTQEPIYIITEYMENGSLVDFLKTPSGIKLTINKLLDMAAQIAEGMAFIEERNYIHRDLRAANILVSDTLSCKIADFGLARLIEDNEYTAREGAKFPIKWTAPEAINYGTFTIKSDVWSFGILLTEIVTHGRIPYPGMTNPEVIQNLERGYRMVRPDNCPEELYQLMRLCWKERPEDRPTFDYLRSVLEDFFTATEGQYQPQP
Method: as §1

HER4 = HER4 (Homo sapiens, UniProt Q15303); conditions: read-out: Remaining protein kinase activity
Chain of HER4 (Q15303 26-1308): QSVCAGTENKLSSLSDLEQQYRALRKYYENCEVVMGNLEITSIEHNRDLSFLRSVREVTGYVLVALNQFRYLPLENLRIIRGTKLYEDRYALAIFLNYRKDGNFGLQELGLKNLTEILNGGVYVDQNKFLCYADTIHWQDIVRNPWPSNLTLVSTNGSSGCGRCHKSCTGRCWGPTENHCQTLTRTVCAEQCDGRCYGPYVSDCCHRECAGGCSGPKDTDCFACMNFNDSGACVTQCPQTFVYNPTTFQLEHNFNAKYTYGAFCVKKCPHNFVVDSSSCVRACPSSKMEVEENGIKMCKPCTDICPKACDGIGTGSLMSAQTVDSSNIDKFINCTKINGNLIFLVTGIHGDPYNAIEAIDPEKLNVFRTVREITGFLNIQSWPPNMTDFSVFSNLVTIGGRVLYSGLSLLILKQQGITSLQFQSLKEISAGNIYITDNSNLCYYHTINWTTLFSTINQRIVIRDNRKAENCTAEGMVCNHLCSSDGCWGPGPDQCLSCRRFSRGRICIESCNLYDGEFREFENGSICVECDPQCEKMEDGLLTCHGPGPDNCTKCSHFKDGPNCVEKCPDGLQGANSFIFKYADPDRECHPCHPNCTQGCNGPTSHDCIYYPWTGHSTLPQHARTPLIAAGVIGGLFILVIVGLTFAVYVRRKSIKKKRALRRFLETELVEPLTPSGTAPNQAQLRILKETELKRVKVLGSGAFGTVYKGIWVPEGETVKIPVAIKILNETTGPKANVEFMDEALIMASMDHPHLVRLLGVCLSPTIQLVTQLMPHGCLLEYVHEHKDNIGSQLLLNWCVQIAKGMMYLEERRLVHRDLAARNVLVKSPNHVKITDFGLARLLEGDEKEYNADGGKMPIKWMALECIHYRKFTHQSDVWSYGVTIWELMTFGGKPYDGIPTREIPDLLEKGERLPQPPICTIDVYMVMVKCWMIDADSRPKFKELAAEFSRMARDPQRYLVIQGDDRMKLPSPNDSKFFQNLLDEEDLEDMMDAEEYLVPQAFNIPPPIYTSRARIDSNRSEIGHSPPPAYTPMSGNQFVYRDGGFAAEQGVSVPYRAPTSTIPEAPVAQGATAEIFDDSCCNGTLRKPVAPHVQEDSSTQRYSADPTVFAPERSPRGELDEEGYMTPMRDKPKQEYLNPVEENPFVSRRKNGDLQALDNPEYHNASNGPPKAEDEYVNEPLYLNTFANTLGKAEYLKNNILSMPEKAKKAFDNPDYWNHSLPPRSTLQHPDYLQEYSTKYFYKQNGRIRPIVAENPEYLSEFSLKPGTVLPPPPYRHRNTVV
Method: as §1

PDK1 = molecular target: T1, PDK1 (Homo sapiens, UniProt O15530); conditions: read-out: Remaining protein kinase activity
T1 sequence (O15530 1-556): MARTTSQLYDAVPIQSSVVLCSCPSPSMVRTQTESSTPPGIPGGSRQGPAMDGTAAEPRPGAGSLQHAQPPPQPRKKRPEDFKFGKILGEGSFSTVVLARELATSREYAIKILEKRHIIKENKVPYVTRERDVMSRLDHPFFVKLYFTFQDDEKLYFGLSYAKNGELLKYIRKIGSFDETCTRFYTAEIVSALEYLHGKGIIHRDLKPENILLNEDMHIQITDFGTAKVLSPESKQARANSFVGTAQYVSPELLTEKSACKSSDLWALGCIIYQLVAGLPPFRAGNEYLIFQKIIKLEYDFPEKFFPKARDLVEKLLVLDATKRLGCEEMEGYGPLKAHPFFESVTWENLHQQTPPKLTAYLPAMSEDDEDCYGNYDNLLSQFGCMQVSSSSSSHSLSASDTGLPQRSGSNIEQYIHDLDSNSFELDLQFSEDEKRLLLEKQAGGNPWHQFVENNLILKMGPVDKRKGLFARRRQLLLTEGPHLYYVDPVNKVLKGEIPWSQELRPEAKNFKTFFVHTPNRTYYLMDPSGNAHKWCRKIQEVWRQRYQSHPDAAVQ
Method: as §1

BRK = BRK (Homo sapiens, UniProt Q13882); conditions: read-out: Remaining protein kinase activity
Chain of BRK (Q13882 whole entry): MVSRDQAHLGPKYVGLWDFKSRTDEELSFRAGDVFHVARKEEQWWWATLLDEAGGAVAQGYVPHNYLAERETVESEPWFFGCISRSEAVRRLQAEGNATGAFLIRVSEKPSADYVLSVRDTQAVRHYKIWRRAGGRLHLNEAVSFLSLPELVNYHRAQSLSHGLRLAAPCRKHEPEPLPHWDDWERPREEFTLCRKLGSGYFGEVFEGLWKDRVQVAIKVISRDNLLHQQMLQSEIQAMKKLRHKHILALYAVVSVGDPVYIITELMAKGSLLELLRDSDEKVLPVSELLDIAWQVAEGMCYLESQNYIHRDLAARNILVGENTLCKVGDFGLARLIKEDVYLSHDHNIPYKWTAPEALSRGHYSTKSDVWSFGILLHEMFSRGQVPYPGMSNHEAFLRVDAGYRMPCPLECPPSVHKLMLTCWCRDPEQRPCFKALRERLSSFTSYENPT
Method: as §1

TTBK1 = TTBK1 (Homo sapiens, UniProt Q5TCY1); conditions: read-out: Remaining protein kinase activity
Method: as §1

EPH-A2 = EPH-A2 (Homo sapiens, UniProt P29317); conditions: read-out: Remaining protein kinase activity
Method: as §1

MAP4K3 = molecular target: T2, MAP4K3 (Homo sapiens, UniProt Q8IVH8)
T2 sequence (Q8IVH8 1-894): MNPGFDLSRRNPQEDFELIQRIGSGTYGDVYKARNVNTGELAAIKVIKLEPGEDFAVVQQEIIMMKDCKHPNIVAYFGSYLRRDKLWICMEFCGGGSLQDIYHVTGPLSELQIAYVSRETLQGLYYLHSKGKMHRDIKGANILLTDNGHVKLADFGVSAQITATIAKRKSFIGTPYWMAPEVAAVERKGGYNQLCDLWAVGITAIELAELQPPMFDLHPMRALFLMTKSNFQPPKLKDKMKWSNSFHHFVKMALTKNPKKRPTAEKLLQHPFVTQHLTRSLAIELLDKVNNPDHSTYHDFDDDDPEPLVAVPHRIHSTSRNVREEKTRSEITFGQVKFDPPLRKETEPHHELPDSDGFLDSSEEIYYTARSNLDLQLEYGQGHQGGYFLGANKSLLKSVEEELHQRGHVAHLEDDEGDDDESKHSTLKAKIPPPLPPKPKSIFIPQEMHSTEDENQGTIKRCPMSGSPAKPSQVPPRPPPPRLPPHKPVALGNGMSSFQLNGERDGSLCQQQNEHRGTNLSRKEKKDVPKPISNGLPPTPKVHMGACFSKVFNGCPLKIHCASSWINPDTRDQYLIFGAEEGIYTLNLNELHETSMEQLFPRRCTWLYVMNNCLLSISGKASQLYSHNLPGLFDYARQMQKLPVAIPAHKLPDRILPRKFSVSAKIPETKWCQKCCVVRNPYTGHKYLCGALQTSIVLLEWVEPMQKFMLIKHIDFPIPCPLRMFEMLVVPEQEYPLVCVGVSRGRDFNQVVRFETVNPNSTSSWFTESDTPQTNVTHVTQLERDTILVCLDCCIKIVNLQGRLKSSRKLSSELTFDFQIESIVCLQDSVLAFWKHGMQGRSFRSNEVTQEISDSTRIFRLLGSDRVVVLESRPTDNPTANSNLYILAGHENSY
Method: as §1

Chain of MKK2 (P36507 whole entry, species assumed): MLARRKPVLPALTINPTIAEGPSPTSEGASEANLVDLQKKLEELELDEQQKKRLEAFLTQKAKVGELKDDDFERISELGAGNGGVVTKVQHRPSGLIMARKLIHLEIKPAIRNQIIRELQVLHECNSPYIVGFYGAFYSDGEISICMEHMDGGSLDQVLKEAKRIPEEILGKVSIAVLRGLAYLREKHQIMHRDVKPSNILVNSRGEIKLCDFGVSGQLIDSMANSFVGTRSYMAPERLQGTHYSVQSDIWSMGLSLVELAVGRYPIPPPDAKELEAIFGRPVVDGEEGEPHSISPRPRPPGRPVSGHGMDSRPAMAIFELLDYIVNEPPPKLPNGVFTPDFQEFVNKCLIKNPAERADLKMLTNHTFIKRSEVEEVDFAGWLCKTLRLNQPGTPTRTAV

Molecule `COc1ccc2sc(-c3cncc(NC(C)=O)c3)nc2c1` [PST-001, N-(5-(5-Methoxybenzo[d]thiazol-2-yl)pyridin-3-yl)acetamide] has a remaining activity at 1 µM (MKK2) of 75%, a remaining activity at 100 µM (MKK2) of 100% and a remaining activity at 1 µM (PLK1) of 112%. For the same molecule, the remaining activity at 100 µM (PLK1) was 115%, the “Remaining protein kinase activity” value (PHK; 100 μM) was 83% and the remaining activity at 1 µM (ERK1) was 109%. The remaining activity at 100 µM (ERK1) was 108%, the remaining activity at 1 µM (PKCa) was 119% and the remaining activity at 100 µM (PKCa) was 85%. For the same molecule, the remaining activity at 1 µM (MST4) was 112%, the remaining activity at 100 µM (MST4) was 113% and the “Remaining protein kinase activity” value (WNK1; 1 μM) was 127%. The “Remaining protein kinase activity” value (WNK1; 100 μM) was 118%, the remaining activity at 1 µM (Lck) was 93% and the remaining activity at 100 µM (Lck) was 100%. The remaining activity at 1 µM (HER4) was 103%, the remaining activity at 100 µM (HER4) was 94% and the remaining activity at 1 µM (PDK1) was 110%. It also gave a remaining activity at 100 µM (PDK1) of 105%, a remaining activity at 1 µM (BRK) of 106% and a remaining activity at 100 µM (BRK) of 106%. It also gave a remaining activity at 100 µM (TTBK1; TTBK1) of 110%, a remaining activity at 1 µM (TTBK1) of 109% and a remaining activity at 1 µM (EPH-A2) of 124%. For the same molecule, the remaining activity at 100 µM (EPH-A2) was 119%, the “Remaining protein kinase activity” value (MAP4K3; 1 μM) was 111% and the “Remaining protein kinase activity” value (MAP4K3; 100 μM) was 94%.
In the case of `COc1ccc2sc(-c3cncc(N)c3)nc2c1` [compound 1, 5-(5-Methoxybenzo[d]thiazol-2-yl)pyridin-3-amine], the remaining activity at 1 µM (MKK2; MKK2, 1 μM) is reported as 81%, the remaining activity at 100 µM (MKK2; MKK2, 100 μM) is reported as 62% and the remaining activity at 1 µM (PLK1; PLK1, 1 μM) is reported as 99%. The remaining activity at 100 µM (PLK1; PLK1, 100 μM) was 73%, the “Remaining protein kinase activity” value (PHK; 1 μM) was 101% and the “Remaining protein kinase activity” value (PHK; 100 μM) was 52%. The remaining activity at 1 µM (ERK1; ERK1, 1 μM) was 99%, the remaining activity at 100 µM (ERK1; ERK1, 100 μM) was 81% and the remaining activity at 1 µM (PKCa; PKCa, 1 μM) was 110%. For the same molecule, the remaining activity at 100 µM (PKCa; PKCa, 100 μM) was 63%, the remaining activity at 1 µM (MST4; MST4, 1 μM) was 101% and the remaining activity at 100 µM (MST4; MST4, 100 μM) was 72%. For the same molecule, the “Remaining protein kinase activity” value (WNK1; 1 μM) was 116%, the “Remaining protein kinase activity” value (WNK1; 100 μM) was 113% and the remaining activity at 1 µM (Lck; Lck, 1 μM) was 106%. The remaining activity at 100 µM (Lck; Lck, 100 μM) was 52%, the remaining activity at 1 µM (HER4; HER4, 1 μM) was 104% and the remaining activity at 100 µM (HER4; HER4, 100 μM) was 16%. The remaining activity at 1 µM (PDK1; PDK1, 1 μM) was 104%, the remaining activity at 100 µM (PDK1; PDK1, 100 μM) was 67% and the remaining activity at 1 µM (BRK; BRK, 1 μM) was 94%. The remaining activity at 100 µM (BRK; BRK, 100 μM) was 50%, the remaining activity at 1 µM (TTBK1; TTBK1, 1 μM) was 109% and the remaining activity at 100 µM (TTBK1; TTBK1) was 90%. The remaining activity at 1 µM (EPH-A2; EPH-A2, 1 μM) was 112%, the remaining activity at 100 µM (EPH-A2; EPH-A2, 100 μM) was 90% and the “Remaining protein kinase activity” value (MAP4K3; 1 μM) was 98%. The “Remaining protein kinase activity” value (MAP4K3; 100 μM) was 22%.
